The values below come from patent US12721808B2, “Orris root extracts, compositions, and methods for skin applications” (ACCESS BUSINESS GROUP INTERNATIONAL LLC, priority 2021, dated 2026).

Structures are written as SMILES.

For the assay, the system named is B16-F10 (B16) cells. The assay can be described thus: Bioassay Directed Fractionation (BDF) with B16 cell culture pigmentation assay. It is filed as cell-based. Conditions: LC fraction (20 sec) of Orris root extract corresponding to the compound's peak, FIG. 2. The procedure: Sample extracts were prepared at 50 mg/ml in DMSO and sonicated for 20 min. Samples solutions were then filtered through 0.2 μm Whatman Anotop 25 syringe filter into autosampler vials for assay. The LC-MS system was modified to incorporate a 10:1 splitter that was positioned between the UV detector and MS ion source. The majority of LC effluent was directed to a Waters Fraction Collector II fitted with a 96-deep well plate into which fractions were collected by time at intervals of 20 sec/well for the first 32 minutes of each run (96 wells/run). The LC column was a XBridge Shield RP18, 5 μm, 4.6×250 mm maintained at ambient temperature (22° C.). The solvent program was ramped linearly as follows: 95% A/5% B at time 0, to 100% B at 30 min, hold at 100% B to 32 min, then to 95% A/5% B at 32.1 min and hold 95% A/5% B until 36 min. The flow rate was 0.8 mL/min and an injection volume of […] was used (0.5 mg solids/injection). Effluent from four consecutive LC runs was collected per plate (2 mg solids/plate). Plates were then dried under nitrogen at 40° C. to remove acetonitrile and residual water was removed by freeze drying. Plates were stored at −80° C. until to assayed for pigmentation response.
The results of the BDF are shown in FIG. 2, with LC-UV chromatogram A at 260 nm showing phytochemical peak profile, and time-aligned bar graph B (with each bar representing a fraction from the LC effluent collected for 20 seconds), showing pigmentation responses using B16 cell culture assay.
Primary cells and cell lines were grown in a humidified atmosphere of 5% CO2 at 37° C. […]
B16 cells (6000 cells/well) were pre-cultured in 96-well plates in DMEM medium supplemented with 10% FBS and 1% P/S for 24 hours. […] The absorbance at 405 nm was measured, and MTT (3-(4,5-dimethylthiazol-2-yl)-2,5-diphenyltetrazolium bromide) assay was performed to examine the viability of cells. […]

For `COc1c2c(cc3occ(-c4ccc(O[C@@H]5O[C@H](CO)[C@@H](O)[C@H](O)[C@H]5O)cc4)c(=O)c13)OCO2` [germanaism B, Germanaism B], the pigmentation response result was “Increased pigmentation”.
Under `C=C1CC[C@H](C)C(C)(C)[C@@H]1/C=C/C(C)=C/CC[C@@]1(CO)[C@H](CCCO)/C(=C(/C)C=O)CC[C@]1(C)O` [iriflorental, Iriflorental] stands “reduced pigmentation”; under `CC1=CC[C@H](C)C(C)(C)[C@@H]1/C=C/C(C)=C/CC[C@@]1(CO)[C@H](CCCO)/C(=C(/C)C=O)CC[C@]1(C)O` [iripallidal, Iripallidal], “reduced pigmentation”.
